Data as given in patent US20050038259A1, “Hydroxyeicosenoic acid anaglogs” (priority 2001, published 2005).

Legend:
Rat neutrophils = assay: Test for elastase production by fMLP stimulation (elastase release inhibition); assay type: cell-based; conditions: Neutrophil; elastase release from cytochalasin B-primed rat neutrophils stimulated with fMLP (1 μM); elastase activity in supernatant
Experimental: Rat neutrophils preparation was obtained 15-18 hrs after intraperitoneal injection of a 1% sterile casein solution in saline (120 mL/kg). Cells were harvested by peritoneal lavage after the decapitation. The lavage fluid was ice-cold PBS (Phosphate-Buffered Saline). Peritoneal exudates were pooled, centrifuged and suspended in HBSS (Hanks' Balanced Salt Solution) at 1×10^7 cells/mil. Cytochalasin B (final concentration: 5 μg/ml) were added to prime the cells. The cells were added into a 96-well culture plate (190 μL/well) and then the compounds of the present invention at various concentrations (10^−7 to 3×10^−5 M) were added and incubated at 37° C. in an atmosphere of 5% CO2 in air. After 10 minutes, fMLP (20 μM, 10 μL) was added, while 10 μL of an HBSS solution containing 0.4% ethanol was added to the group to which no fMLP was added. After gently stirring, cells were incubated for further 10 minutes. The reaction was stopped on ice, and an incubated supernatant was recovered by centrifugation.
Elastase activity in the incubated supernatant was measured using a specific elastase substrate, N-succinyl-L-alanyl-L-alanyl-L-proline-valine-MCA (Peptide Institute, Inc., Osaka), 0.12 mM in 50 mM Tris-HCl (pH 8.0). Fifty microliter of an incubated supernatant was added to the substrate solution (50 μL) and incubated at 37° C. for 30 minutes. Elastase activity was assayed at a wavelength of 360 nm at excitation and 480 nm at emission.
Elastase release-inhibiting activity (inhibition ratio) was calculated according to the following equation: Inhibition ratio (%)={1−(A−C)/(B−C)}×100 wherein A stands for a fluorescence intensity when […]; and C stands for a fluorescence intensity when fMLP (1 μM) was not added.
Inhibitory concentration of 50% (IC50 value) of the compound of the invention was calculated with a concentration-inhibition ratio curve.

[1] = tested on: Rat transient MCA occlusion (t-MCAo) model; assay: Infarct volume in rat transient MCA occlusion (t-MCAo) model; assay type: in vivo; conditions: intravenous 1 hour infusion immediately after reperfusion
Experimental: FIG. 1 represents an effect of the compound 50 on infarct volume in rat t-MCAo model. The infarct volumes of total (closed bar), cortex (solid bar) and sub-cortex (open bar) were determined 71 hrs after reperfusion. Data are presented as mean ±SEM. *p<0.05 vs vehicle-treated group (Dunnett's test).
Adult male Wistar rats (200-250 g) were anesthetized with 2% halothane in air. The right internal carotid artery (ICA) was carefully dissected. A silicon-coated suture (18 mm-long) was inserted to the ICA. Body temperature was maintained at 37° C. with a heating pad. […] After 1 hour of MCA occlusion, the thread was removed to allow reperfusion of the ischemic area. Rats were received intravenously 1 hour-infusion of vehicle (10% of HP-β-CD) or the compound 50 dissolved in vehicle immediately after reperfusion.
To measure infarct volume, rats were killed at 71 hours of reperfusion. Brains were perfused transcardially with physiological saline, and removed from skulls, cut into 2-mm coronal sections. The slices were immersed in 2% triphenyltetrazolium chloride (TTC) solution at 37° C. for 30 minutes.
All values were presented as mean ±SEM. For statistical analyses, Dunnett's multiple-range test was used.

CCCC[C@@H](O)/C=C\CCCCCCCCCCCC(=O)O [Compound 65, (R)-(Z)-15-Hydroxynonadec-13-enoic acid] was tested, and the IC50 (Rat neutrophils) was 17.5 µM.

CCCC[C@@H](O)C#CCCCCCCCCCCCCCC(=O)O [Compound 4, (R)-17-Hydroxyheneicos-15-ynoic acid] was tested, and the IC50 (Rat neutrophils) was 10.3 µM.

In the case of CCCC[C@@H](O)C#CCCCCCCCCCCCCC(=O)O [Compound 12, (R)-16-Hydroxyeicos-14-ynoic acid], the IC50 (Rat neutrophils) is reported as 9.18 µM.

With CCCC[C@@H](O)/C=C\CCCCCCCCCCCCC(=O)O [Compound 50, (R)-(Z)-16-Hydroxyeicos-14-enoic acid] the IC50 (Rat neutrophils) was 8.29 µM, the “reduction of total infarct volume as compared with vehicle-treated group” value ([1]; 0.01 mg/kg/min, 71 hours of reperfusion, significant) was 35.3% and the “effect on infarct volume” value ([1]; from 0.001 mg/kg/min, doses 0.001, 0.01, 0.1 mg/kg/min) was “reduced the infarct volume”.
